# Assay results reported in publication PMC8215295, “Identification and characterization of the pyridoxal 5’-phosphate allosteric site in Escherichia coli pyridoxine 5’-phosphate oxidase” (The Journal of Biological Chemistry, 2021).
# “And” between values parts separate entries of the source, which are not always exact repeats. Equal entries are not always repeated. “Also recorded” adds a separate entry of the source.
# B1: Escherichia coli pyridoxine 5'-phosphate oxidase quadruple variant K72I/Y129F/R133L/H199A (enzyme, UniProt P0AFI7 1-218, looked up)
# chain: MSDNDELQQIAHLRREYTKGGLRRRDLPADPLTLFERWLSQACEAKLADPTAMVVATVDEHGQPYQRIVLLIHYDEKGMVFYTNLGSRKAHQIENNPRVSLLFPWHTLERQVMVIGKAERLSTLEVMKFFHSLPRDSQIGAWVSKQSSRISARGILESKFLELKQKFQQGEVPLPSFWGGFRVSLEQIEFWQGGEHRLADRFLYQRENDAWKIDRLAP
# notes: pyridoxine 5'-phosphate oxidase (PNPO, EC 1.4.3.5) of Escherichia coli, encoded by pdxH; the entire polypeptide chain is made by 218 residues; active site impaired by four substitutions; Gene cloned in pET22b(+) between NdeI and NcoI; no tag is mentioned; Modelled residues: 7-218 in 6YLZ; 17-126 and 176-218 (chain A), 14-166 and 170-218 (chain B) in 6YMH; also called ePNPOqm; source: E. coli …
# Columns and labels:
# [1] = target: T1, wildtype ePNPO (Escherichia coli, UniProt P0AFI7); settings: cited from earlier work
# T1 construct: the entire polypeptide chain is made by 218 residues; made in house; host or cells: E. coli MDS00, pET22b(+)
# T1 sequence (P0AFI7 whole entry): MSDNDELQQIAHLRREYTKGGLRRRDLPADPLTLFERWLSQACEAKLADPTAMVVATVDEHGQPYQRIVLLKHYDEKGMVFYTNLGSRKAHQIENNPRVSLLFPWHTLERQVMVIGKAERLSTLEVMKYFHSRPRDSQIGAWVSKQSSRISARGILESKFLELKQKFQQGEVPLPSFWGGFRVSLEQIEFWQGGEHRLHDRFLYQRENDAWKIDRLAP
# [2] = target: T2, ePNPO R23L variant (Escherichia coli, UniProt P0AFI7, R23L); assay: Fluorimetric PLP binding equilibrium
# T2 sequence (P0AFI7 whole entry R23L): as the sequence (P0AFI7 whole entry) above, with R23L counted along it
# [3] = target: T1, wildtype ePNPO; assay: PLP retention after SEC; assay type: binding; settings: 100 μM enzyme + equimolar PLP, with respect to protein subunits
# Method: (§1) It is known by previous experiments on wildtype ePNPO that, when the protein is incubated with PLP and then passed through an SEC column, it retains PLP tightly bound to it ([7]). […] All ePNPO variants (100 μM) were incubated with an equimolar amount of PLP. Then, they were passed through an SEC column and the stoichiometry of protein-bound PLP with respect to protein subunits was determined. The percentage of protein-bound PLP was 72 ± 8, 73 ± 10, and 73 ± 19, with the K145A/F177A, N84A/K145A/F177A and N84W/K145A/F177A ePNPO variants, respectively (Table 1).
# [4] = target: T3, ePNPO N84W/K145A/F177A variant (Escherichia coli, UniProt P0AFI7, F177A/K145A/N84W); assay: PLP retention after SEC; assay type: binding; settings: 100 μM enzyme + equimolar PLP, with respect to protein subunits
# T3 construct: the entire polypeptide chain is made by 218 residues; made in house; host or cells: E. coli MDS00, pET22b(+)
# T3 sequence (P0AFI7 whole entry N84W/K145A/F177A): as the sequence (P0AFI7 whole entry) above, with N84W, K145A, F177A counted along it
# Method: as §1
# [5] = target: T4, ePNPO N84A/K145A/F177A variant (Escherichia coli, UniProt P0AFI7, F177A/K145A/N84A); assay: PLP retention after SEC; assay type: binding; settings: 100 μM enzyme + equimolar PLP, with respect to protein subunits
# T4 construct: the entire polypeptide chain is made by 218 residues; made in house; host or cells: E. coli MDS00, pET22b(+)
# T4 sequence (P0AFI7 whole entry N84A/K145A/F177A): as the sequence (P0AFI7 whole entry) above, with N84A, K145A, F177A counted along it
# Method: as §1
# [6] = target: T5, ePNPO K145A/F177A variant (Escherichia coli, UniProt P0AFI7, F177A/K145A); assay: PLP retention after SEC; assay type: binding; settings: 100 μM enzyme + equimolar PLP, with respect to protein subunits
# T5 construct: the entire polypeptide chain is made by 218 residues; made in house; host or cells: E. coli MDS00, pET22b(+)
# T5 sequence (P0AFI7 whole entry K145A/F177A): as the sequence (P0AFI7 whole entry) above, with K145A, F177A counted along it
# Method: as §1
# [7] = target: T1, wildtype ePNPO; settings: read-out: KD^PLP, fluorimetric PLP binding equilibrium; cited from earlier work
# [8] = target: T2, ePNPO R23L variant; assay: PLP retention after SEC; settings: 100 μM enzyme + equimolar PLP, with respect to protein subunits
# [9] = target: T1, wildtype ePNPO; settings: in solution; cited from earlier work
# [10] = target: T6, ePNPO R23L/R24L variant (Escherichia coli, UniProt P0AFI7, R23L/R24L); assay: Fluorimetric PLP binding equilibrium
# T6 sequence (P0AFI7 whole entry R23L/R24L): as the sequence (P0AFI7 whole entry) above, with R23L, R24L counted along it
# [11] = target: T6, ePNPO R23L/R24L variant; assay: biochemical; assay type: biochemical; design: the entire polypeptide chain is made by 218 residues; made in house; host or cells: E. coli MDS00, pET22b(+)
# Source text: Initial velocity data obtained with all variant forms were fitted to the Michaelis–Menten equation in order to obtain apparent VMAX and KM values as a function of PLP concentration.
# Figure 7 Kinetic analysis of PLP inhibition with Arg-cage variants. […] Initial velocity measurements shown in the left panels are the average ± standard deviation of three independent measurements. Saturation curves were fitted to the Michaelis–Menten equation, obtaining apparent VMAX and KM values as a function of PLP concentration. These are represented as 1/VMAX (blue symbols) and KM/VMAX (red symbols) in the right panels, in order to facilitate the interpretation of the PLP inhibition mechanism from the shape of graphs, which correspond to the classic secondary plots of the Y-intercept and slope derived from Lineweaver–Burk plots. As detailed in the Experimental Procedures section, initial velocity data and 1/VMAX and KM/VMAX values of each data set were globally fitted to Equations (3), (4), (5), obtaining the continuous lines shown in the graphs and the parameter values shown in Table 3.
# In order to analyze the above-mentioned kinetic data, a general inhibition model was considered (Fig. 8A), in which PLP binds at both the active and allosteric sites. […] Therefore, the dissociation constant of the substrate binding equilibrium may be assumed to correspond to the Michaelis–Menten constant (KM) derived from steady-state kinetic measurements. Equations describing the dependence of initial velocity, 1/VMAX, and KM/VMAX on substrate and PLP concentration were derived on the basis of these assumptions (Equations (3), (4), (5)). Using these equations, initial velocity data as a function of substrate concentration, obtained at all different fixed PLP concentrations, were globally fit together with the previously obtained values of apparent 1/VMAX and KM/VMAX as a function of PLP concentration.
# Inhibition kinetics were measured in 50 mM Na-Hepes pH 7.6. […] All saturation curves obtained by varying PNP at a fixed PLP concentration were independently analyzed using the Michaelis–Menten equation, obtaining apparent VMAX and apparent KM values, which were then used to calculate 1/appVMAX and appKM/appVMAX as a function of PLP concentration.
# [12] = tested on: human pyridoxine 5’-phosphate oxidase; design: method as in PMID 32788630; settings: human PNPO; parabolic inhibition model; cited from earlier work
# [13] = tested on: ePNPO quadruple variant (K72I/Y129F/R133L/H199A); settings: ePNPO quadruple variant with impaired active site; cited from earlier work
# [14] = target: T6, ePNPO R23L/R24L variant; assay: PLP retention after SEC; settings: 100 μM enzyme + equimolar PLP, with respect to protein subunits
# [15] = target: T3, ePNPO N84W/K145A/F177A variant; assay: Fluorimetric PLP binding equilibrium
# Method: (§2) Binding of PLP to ePNPO variants was also analyzed using the spectrofluorometric method previously employed for the wildtype enzyme ([5]), which is based on the resulting increase of FMN fluorescence emission.
# [16] = target: T4, ePNPO N84A/K145A/F177A variant; assay: Fluorimetric PLP binding equilibrium
# Method: as §2
# [17] = target: T5, ePNPO K145A/F177A variant; assay: Fluorimetric PLP binding equilibrium
# Method: as §2
# [18] = target: R23L/R24L ePNPO (Escherichia coli, UniProt P0AFI7, R23L/R24L); assay: PLP binding stoichiometry, fluorimetric titration; settings: titration of 2, 4 and 8 μM ePNPO with PLP
# Chain of R23L/R24L ePNPO (P0AFI7 whole entry R23L/R24L): as the sequence (P0AFI7 whole entry) above, with R23L, R24L counted along it
# [19] = tested on: ePNPO; settings: cited from earlier work
# [20] = target: the molecule itself; assay: crystal structure; ePNPOqm without PLP, space group P3(1) 2 1, 1.56 Å; one subunit in the asymmetric unit, dimer generated by the crystallographic 2-fold axis; hanging drop, (NH4)2SO4, 298 K
molecule,measurement,setting,value
"Cc1ncc(COP(=O)(O)O)c(C=O)c1O [PLP, Pyridoxal 5’-phosphate]",αKI (PLP binding at allosteric site of ES complex),"[1]; WT, determined according to Figure 2A model",7.13 ± 0.52 µM
same,Ki,"[1]; read-out: KI (PLP binding at the allosteric site), WT, determined according to Figure 2A model",590 ± 700 nM
same,type of PLP inhibition,[1]; wildtype ePNPO,linear mixed-type inhibition
same,Kd,[2],580 ± 120 nM
same,PLP (%) protein-bound PLP retained after SEC,[3],70% and 69 ± 19%
same,PLP (%) protein-bound PLP retained after SEC,[4],73 ± 19%
same,PLP (%) protein-bound PLP retained after SEC,[5],73 ± 10%
same,PLP (%) protein-bound PLP retained after SEC,[6],72 ± 8%
same,Kd,[7],150 nM
same,PLP (%) protein-bound PLP retained after SEC,[8],38 ± 11%
same,stoichiometry of PLP binding to the allosteric site,[9],one PLP molecule per protein dimer
same,Kd,[10],1000 ± 90 nM
same,α (allosteric coupling coefficient),[11],6.6
same,γ factor (PLP active site / allosteric site coupling),[11],0.31
same,type of PLP inhibition,[11]; Hepes buffer,parabolic inhibition
same,Ki,"[11]; KI (PLP binding at the allosteric site), global fit (Fig. 8A model)",820 ± 20 nM
same,Ki,"[11]; KX (PLP binding at the active site), global fit (Fig. 8A model)",6580 ± 620 nM
same,αKI (PLP binding at allosteric site of ES complex),[11]; global fit (Fig. 8A model),5.39 ± 1.14 µM
same,β (coefficient reducing kCAT of PES complex),[11]; global fit (Fig. 8A model),0.42 and 0.42 ± 0.05
same,Ki,"[11]; γKX (PLP binding at active site of PE complex), global fit (Fig. 8A model)",2050 ± 60 nM
same,α value (allosteric coupling),[12],about 3
same,β coefficient (reduction of kCAT of PES complex),[12],0.15
same,stoichiometry of PLP binding,[13],two PLP molecules per dimer
same,PLP (%) protein-bound PLP retained after SEC,[14],30 ± 8%
same,Kd,[15],330 ± 70 nM
same,Kd,[16],360 ± 50 nM
same,Kd,[17],470 ± 60 nM
same,PLP binding stoichiometry,[18],two molecules of PLP per protein subunit; also recorded: four PLP molecules per enzyme dimer
same,kOFF of PLP binding,[19],3.2 s⁻¹
same,kON of PLP binding,[19],1.13e+07 M⁻¹ s⁻¹
B1,stoichiometry N,[20],2
